Laboratory results as given in patent publication US7973069B2 (PTC Therapeutics, Inc., priority 2004, dated 2011).
Several values for one entry are separate records, joined by “and”; a condition that tells them apart may be missing. Equal values may be shown once.

Test system: HCV replicon
Type: cell-based

Row | SMILES | IC50
1 | CCOC(=O)Nc1ccc(-c2c(C#N)c3ccc(OC)cc3n2CC)cc1C [Compound 964] | 0.5 to 2 µM
2 | CCCOC(=O)Nc1ccc(-c2c(C#N)c3ccc(OC)cc3n2CC)cc1C [Compound 965] | 0.5 to 2 µM
3 | CCNC(=O)Nc1ccc(-c2c(C#N)c3ccc(OC)cc3n2CC)cc1C [Compound 966] | 0.5 to 2 µM
4 | CCCNC(=O)Nc1ccc(-c2c(C#N)c3ccc(OC)cc3n2CC)cc1C [Compound 967] | 0.5 to 2 µM
5 | CCn1c(-c2ccc(NS(=O)(=O)CC)cc2)c(C#N)c2ccc(C(=O)OC)cc21 [Compound 968] | < 0.5 µM and 0.5 to 2 µM
6 | CCn1c(-c2ccc(N3CCCS3(=O)=O)cc2)c(C#N)c2ccc(C(F)(F)F)cc21 [Compound 969] | < 0.5 µM
7 | CCOc1ccc2c(C#N)c(-c3ccc(NC(=O)OC)cc3)n(C3CCC3)c2c1 [Compound 970] | < 0.5 µM
8 | CCOC(=O)Nc1ccc(-c2c(C#N)c3ccc(OCC)cc3n2C2CCC2)cc1 [Compound 971] | < 0.5 µM
9 | CCCOC(=O)Nc1ccc(-c2c(C#N)c3ccc(OCC)cc3n2C2CCC2)cc1 [Compound 972] | < 0.5 µM
10 | CCOc1ccc2c(C#N)c(-c3ccc(NC(=O)OC(C)C)cc3)n(C3CCC3)c2c1 [Compound 973] | < 0.5 µM
11 | CCOc1ccc2c(C#N)c(-c3ccc(NC(=O)OCCF)cc3)n(C3CCC3)c2c1 [Compound 974] | < 0.5 µM
12 | CCOc1ccc2c(C#N)c(-c3ccc(NC(=O)OCCOC)cc3)n(C3CCC3)c2c1 [Compound 975] | 0.5 to 2 µM
13 | CC#CCOC(=O)Nc1ccc(-c2c(C#N)c3ccc(OCC)cc3n2C2CCC2)cc1 [Compound 976] | 0.5 to 2 µM
14 | CCOc1ccc2c(C#N)c(-c3ccc(NC(=O)OCCCCl)cc3)n(C3CCC3)c2c1 [Compound 977] | < 0.5 µM
15 | CCOc1ccc2c(C#N)c(-c3ccc(NC(=O)Oc4ccc(OC)cc4)cc3)n(C3CCC3)c2c1 [Compound 978] | 0.5 to 2 µM
16 | CCOc1ccc2c(C#N)c(-c3ccc(NC(=O)OCC(C)C)cc3)n(C3CCC3)c2c1 [Compound 979] | < 0.5 µM
17 | CCOc1ccc2c(C#N)c(-c3ccc(N4CCCS4(=O)=O)cc3)n(C3CCC3)c2c1 [Compound 980] | > 2 µM
18 | C=CCOC(=O)Nc1ccc(-c2c(C#N)c3ccc(OCC)cc3n2C2CCC2)cc1 [Compound 981] | < 0.5 µM
19 | COc1ccc2c(C#N)c(-c3ccc(NS(=O)(=O)C4CC4)cc3)n(CC3CC3)c2c1 [Compound 982] | > 2 µM
20 | COc1ccc2c(C#N)c(-c3ccc(NC(=O)C4CC4)cc3)n(CC3CC3)c2c1 [Compound 983] | 0.5 to 2 µM
21 | CCOC(=O)Nc1ccc(-c2c(C#N)c3ccc(OC)cc3n2CC2CC2)cc1 [Compound 984] | 0.5 to 2 µM

Row | SMILES | IC50
22 | CCCOC(=O)Nc1ccc(-c2c(C#N)c3ccc(OC)cc3n2CC2CC2)cc1 [Compound 985] | 0.5 to 2 µM
23 | COc1ccc2c(C#N)c(-c3ccc(NC(=O)NC(C)C)cc3)n(CC3CC3)c2c1 [Compound 987] | 0.5 to 2 µM
24 | CCS(=O)(=O)Nc1ccc(-c2c(C#N)c3ccc(OC)cc3n2COC)cc1 [Compound 988] | 0.5 to 2 µM
25 | COCn1c(-c2ccc(N3CCCS3(=O)=O)cc2)c(C#N)c2ccc(OC)cc21 [Compound 990] | 0.5 to 2 µM
26 | CCCOC(=O)Nc1ccc(-c2c(C#N)c3ccc(OC)cc3n2COC)cc1 [Compound 993] | 0.5 to 2 µM
27 | CCn1c(-c2ccc(N3CC(=O)NC3=O)cc2)c(C#N)c2ccc(OC)cc21 [Compound 994] | 0.5 to 2 µM
28 | CCCn1c(-c2ccc(NS(C)(=O)=O)cc2)c(C#N)c2cc(OC)ccc21 [Compound 995] | 0.5 to 2 µM
29 | CCCn1c(-c2ccc(NS(=O)(=O)CC)cc2)c(C#N)c2cc(OC)ccc21 [Compound 996] | < 0.5 µM and 0.5 to 2 µM
30 | CCCn1c(-c2ccc(NS(=O)(=O)C(C)C)cc2)c(C#N)c2cc(OC)ccc21 [Compound 997] | 0.5 to 2 µM
31 | CCCn1c(-c2ccc(NS(=O)(=O)C3CC3)cc2)c(C#N)c2cc(OC)ccc21 [Compound 998] | 0.5 to 2 µM
32 | CCCn1c(-c2ccc(NC(=O)NCC)cc2)c(C#N)c2cc(OC)ccc21 [Compound 999] | 0.5 to 2 µM
33 | CCCNC(=O)Nc1ccc(-c2c(C#N)c3cc(OC)ccc3n2CCC)cc1 [Compound 1000] | 0.5 to 2 µM
34 | C=CCNC(=O)Nc1ccc(-c2c(C#N)c3cc(OC)ccc3n2CCC)cc1 [Compound 1001] | 0.5 to 2 µM
35 | CCn1c(-c2ccc(N(C)S(C)(=O)=O)cc2)c(C#N)c2ccc(C(F)(F)F)cc21 [Compound 1002] | 0.5 to 2 µM
36 | CCN(c1ccc(-c2c(C#N)c3ccc(C(F)(F)F)cc3n2CC)cc1)S(C)(=O)=O [Compound 1003] | 0.5 to 2 µM
37 | CCn1c(-c2ccc(N(C)S(=O)(=O)CC)cc2)c(C#N)c2ccc(C(F)(F)F)cc21 [Compound 1005] | 0.5 to 2 µM
38 | CCN(c1ccc(-c2c(C#N)c3ccc(C(F)(F)F)cc3n2CC)cc1)S(=O)(=O)CC [Compound 1006] | < 0.5 µM and 0.5 to 2 µM
39 | CCCN(c1ccc(-c2c(C#N)c3ccc(C(F)(F)F)cc3n2CC)cc1)S(=O)(=O)CC [Compound 1007] | < 0.5 µM
40 | CCCCNC(=O)Nc1ccc(-c2c(C#N)c3cc(OC)ccc3n2CCC)cc1 [Compound 1008] | 0.5 to 2 µM
41 | CCNC(=O)Nc1ccc(-c2c(C#N)c3cc(OC)ccc3n2CC)cc1 [Compound 1009] | 0.5 to 2 µM
42 | CCCNC(=O)Nc1ccc(-c2c(C#N)c3cc(OC)ccc3n2CC)cc1 [Compound 1010] | 0.5 to 2 µM

Row | SMILES | IC50
43 | CCCCNC(=O)Nc1ccc(-c2c(C#N)c3cc(OC)ccc3n2CC)cc1 [Compound 1012] | 0.5 to 2 µM
44 | C=CCNC(=O)Nc1ccc(-c2c(C#N)c3cc(OC)ccc3n2CC)cc1 [Compound 1013] | 0.5 to 2 µM
45 | CCCCn1c(-c2ccc(NC(=O)NCC)cc2)c(C#N)c2ccc(OCC)cc21 [Compound 1016] | 0.5 to 2 µM
46 | CCCCn1c(-c2ccc(NC(=O)NC(C)C)cc2)c(C#N)c2ccc(OCC)cc21 [Compound 1017] | < 0.5 µM
47 | CCCCNC(=O)Nc1ccc(-c2c(C#N)c3ccc(OCC)cc3n2CCCC)cc1 [Compound 1018] | < 0.5 µM
48 | CCCCn1c(-c2ccc(NC(=O)NCCc3ccccc3)cc2)c(C#N)c2ccc(OCC)cc21 [Compound 1019] | < 0.5 µM
49 | CCCCn1c(-c2cccc(NC(=O)OCC)c2)c(C#N)c2ccc(OCC)cc21 [Compound 1020] | < 0.5 µM and 0.5 to 2 µM
50 | CCCCn1c(-c2cccc(NC(=O)OCCC)c2)c(C#N)c2ccc(OCC)cc21 [Compound 1021] | < 0.5 µM
51 | CCCCn1c(-c2cccc(NC(=O)OCCC)c2)c(C#N)c2ccc(OCC)cc21 [Compound 1022] | < 0.5 µM and > 2 µM
52 | CCCCNC(=O)Nc1cccc(-c2c(C#N)c3ccc(OCC)cc3n2CCCC)c1 [Compound 1023] | 0.5 to 2 µM
53 | CCCCn1c(-c2cccc(NC(=O)NCCc3ccccc3)c2)c(C#N)c2ccc(OCC)cc21 [Compound 1024] | < 0.5 µM
54 | CCn1c(-c2ccc(NC(=O)C3CC3)cc2)c(C#N)c2ccc(OCCN3CCOCC3)cc21 [Compound 1025] | 0.5 to 2 µM
55 | CCn1c(-c2ccc(N3CCCS3(=O)=O)cc2)c(C#N)c2ccc(OC(F)F)cc21 [Compound 1026] | 0.5 to 2 µM and < 0.5 µM
56 | CCOc1ccc2c(C#N)c(-c3ccc(NC(=O)NC4CCCC4)cc3)n(C3CCC3)c2c1 [Compound 1027] | < 0.5 µM
57 | CCn1c(-c2cccc(NC(=O)Oc3ccc(OC)cc3)c2)c(C#N)c2ccc(OCCCCl)cc21 [Compound 1028] | < 0.5 µM
58 | CCn1c(-c2ccc(NC(=O)OC)cc2)c(C#N)c2ccc(OCCCCl)cc21 [Compound 1029] | 0.5 to 2 µM
59 | CCCOC(=O)Nc1ccc(-c2c(C#N)c3ccc(OCCCCl)cc3n2CC)cc1 [Compound 1030] | < 0.5 µM
60 | CCOC(=O)Nc1ccc(-c2c(C#N)c3ccc(OCCCCl)cc3n2CC)cc1 [Compound 1031] | < 0.5 µM
61 | CCn1c(-c2ccc(NC(=O)OCCF)cc2)c(C#N)c2ccc(OCCCCl)cc21 [Compound 1033] | < 0.5 µM
62 | CCCOC(=O)Nc1cccc(-c2c(C#N)c3ccc(OCCCN4CCOCC4)cc3n2CC)c1 [Compound 1034] | < 0.5 µM
63 | CCn1c(-c2cccc(NS(=O)(=O)CC)c2)c(C#N)c2ccc(OCCCN3CCOCC3)cc21 [Compound 1035] | 0.5 to 2 µM

Row | SMILES | IC50
64 | CCn1c(-c2cccc(NC(=O)NCCCl)c2)c(C#N)c2ccc(OCCCN3CCOCC3)cc21 [Compound 1036] | 0.5 to 2 µM
65 | CCOc1ccc2c(C#N)c(-c3cccc(NC(=O)OCC(C)C)c3)n(C3CCC3)c2c1 [Compound 1037] | 0.5 to 2 µM
66 | CCn1c(-c2ccc(NS(=O)(=O)C3CC3)cc2)c(C#N)c2cc3c(cc21)OCO3 [Compound 1038] | 0.5 to 2 µM
67 | CCn1c(-c2ccc(NC(=O)NC(C)C)cc2)c(C#N)c2cc3c(cc21)OCO3 [Compound 1039] | 0.5 to 2 µM
68 | CCn1c(-c2ccc(NC(=O)OC(C)C)cc2)c(C#N)c2cc3c(cc21)OCO3 [Compound 1040] | 0.5 to 2 µM
69 | CCCn1c(-c2ccc(NS(=O)(=O)CCC)cc2)c(C#N)c2cc(OC)ccc21 [Compound 1041] | 0.5 to 2 µM and < 0.5 µM
70 | CCCCOC(=O)Nc1cccc(-c2c(C#N)c3ccc(OCCCN4CCOCC4)cc3n2CC)c1 [Compound 1042] | 0.5 to 2 µM
71 | CCNC(=O)Nc1cccc(-c2c(C#N)c3ccc(OCCCN4CCOCC4)cc3n2CC)c1 [Compound 1043] | 0.5 to 2 µM
72 | CCn1c(-c2cccc(NC(=O)OCCCl)c2)c(C#N)c2ccc(OCCCN3CCOCC3)cc21 [Compound 1044] | < 0.5 µM
73 | CCNC(=O)Nc1cccc(-c2c(C#N)c3ccc(OCCCN4CCCC4)cc3n2CC)c1 [Compound 1045] | < 0.5 µM
74 | CCn1c(-c2ccc(NS(=O)(=O)C3CC3)cc2)c(C#N)c2ccc(OC3CC3)cc21 [Compound 1047] | < 0.5 µM
75 | CCn1c(-c2ccc(NC(=O)OC(C)(C)C)cc2)c(C#N)c2ccc(Br)cc21 [Compound 1048] | 0.5 to 2 µM
76 | CCn1c(-c2ccc(N3CCCS3(=O)=O)cc2)c(C#N)c2ccc(NC(=O)OC(C)(C)C)cc21 [Compound 1049] | < 0.5 µM
77 | CCn1c(-c2ccc(N3CCCS3(=O)=O)cc2)c(C#N)c2ccc(N)cc21 [Compound 1050] | 0.5 to 2 µM
78 | CCn1c(-c2ccc(N3CCNC3=O)cc2)c(C#N)c2ccc(OCCCCl)cc21 [Compound 1051] | 0.5 to 2 µM
79 | CCn1c(-c2ccc(N3CCOC3=O)cc2)c(C#N)c2ccc(OCCCCl)cc21 [Compound 1052] | 0.5 to 2 µM
80 | CCn1c(-c2ccc(N3CCCS3(=O)=O)cc2)c(C#N)c2ccc(Oc3cnccn3)cc21 [Compound 1053] | 0.5 to 2 µM
81 | CCn1c(-c2ccc(NC(=O)C3CC3)cc2)c(C#N)c2ccc(OCCN3CCCC3)cc21 [Compound 1054] | 0.5 to 2 µM
